Experimental data as given in patent EP0001174A1, “A peptide and the salts thereof, processes for their preparation and compositions containing them” (NYEGAARD & CO. A/S, priority 1977, dated 1979).
Non-standard residues stand in square brackets, D forms with d. Residues, ends and D or L forms follow the SMILES beside them. pGlu = O=C1CC[C@@H](C(=O)O)N1

Test: biological activity of the synthetic peptide compared with the biogenic material isolated from urine (test not described; anorexigenic properties stated)
Details: no method or figures given

With O=C(O)CNC(=O)[C@H](Cc1cnc[nH]1)NC(=O)[C@@H]1CCC(=O)N1 [synthetic peptide, L-(pyro)glutamyl-L-histidyl-glycine] ([pGlu]-His-Gly-OH) the biological activity was “comparable biological activity”.
